Tests used:
[1] = system: IFNα-induced pSTAT5 (Tyk2-mediated signal transduction); experiment: IFNα-induced STAT phosphorylation in human whole blood; type: cell-based; details: 1 h incubation with compound, 1000 U/mL IFNα A/D for 15 min, CD3 positive population, read-out: Human Whole blood IFNa pSTAT5 IC50
Procedure: IFNα-Induced STAT Phosphorylation in Human Whole Blood
After an hour long incubation with compound, human whole blood (drawn with ACD-A as anticoagulant) was stimulated with 1000 U/mL recombinant human IFNα A/D (R&D Systems 11200-2) for 15 min. The stimulation was stopped by adding Fix/Lyse buffer (BD 558049). Cells were stained with a CD3 FITC antibody (BD 555916), washed, and permeabilized on ice using Perm III buffer (BD 558050). Cells were then stained with an Alexa-Fluor 647 pSTAT5 (pY694) antibody (BD 612599) for 60 min prior to analysis on the iQue Plus. The amount of pSTAT5 expression was quantitated by median fluorescence intensity after gating on the CD3 positive population.

in vitro = details: human, Caco-2, pH 7.4

SMILES | IC50 [1] [µM] | Papp A→B at 2 h, 3 μM (in vitro) [×10⁻⁶ cm/s] | efflux ratio at 2 h, 3 μM (in vitro)
[2H]C([2H])([2H])NC(=O)c1nnc(NC(=O)C2C[C@H]2C)cc1Nc1cccc(-c2nnn(C)n2)c1OC (mixture of isomers) [Example 25, 4-{[2-methoxy-3-(2-methyl-2H-1,2,3,4-tetrazol-5-yl)phenyl]amino}-N-(^2H3)methyl-6-[(1R,2R)-2-methylcyclopropaneamido]pyridazine-3-carboxamide] | 0.248 | 23.3 | 1.1
[2H]C([2H])([2H])NC(=O)c1nnc(NC(=O)C2CC2)cc1Nc1cccc(-c2noc(CF)n2)c1OC [Example 1, 6-(cyclopropanecarboxamido)-4-((3-(5-(fluoromethyl)-1,2,4-oxadiazol-3-yl)-2-methoxyphenyl)amino)-N-(methyl-d3)pyridazine-3-carboxamide] | 0.034 | 65 | 0.5
[2H]C([2H])([2H])NC(=O)c1nnc(NC(=O)C2CC2)cc1Nc1cccc(-c2noc(COC(C)C)n2)c1OC [Example 2, 6-(cyclopropanecarboxamido)-4-((3-(5-(isopropoxymethyl)-1,2,4-oxadiazol-3-yl)-2-methoxyphenyl)amino)-N-(methyl-d3)pyridazine-3-carboxamide] | 0.013 | 66.1 | 0.3
CCOCc1nc(-c2cccc(Nc3cc(NC(=O)C4CC4)nnc3C(=O)NC)c2OC)no1 [Example 3, 6-cyclopropaneamido-4-({3-[5-(ethoxymethyl)-1,2,4-oxadiazol-3-yl]-2-methoxyphenyl}amino)-N-(^2H3)methylpyridazine-3-carboxamide] | 0.031 |  | 
CNC(=O)c1nnc(NC(=O)C2CC2)cc1Nc1cccc(-c2noc(CCOC)n2)c1OC [Example 4, 6-cyclopropaneamido-4-({2-methoxy-3-[5-(2-methoxyethyl)-1,2,4-oxadiazol-3-yl]phenyl}amino)-N-(^2H3)methylpyridazine-3-carboxamide] | 0.009 |  | 
[2H]C([2H])([2H])NC(=O)c1nnc(NC(=O)C2CC2)cc1Nc1cccc(-c2noc(CCF)n2)c1OC [Example 5, 6-(cyclopropanecarboxamido)-4-((3-(5-(2-fluoroethyl)-1,2,4-oxadiazol-3-yl)-2-methoxyphenyl)amino)-N-(methyl-d3)pyridazine-3-carboxamide] | 0.091 | 64 | 0.7
[2H]C([2H])([2H])NC(=O)c1nnc(NC(=O)C2CC2)cc1Nc1cccc(-c2cocn2)c1OC [Example 6, 6-(cyclopropanecarboxamido)-4-((2-methoxy-3-(oxazol-4-yl)phenyl)amino)-N-(methyl-d3)pyridazine-3-carboxamide] | 0.042 | 78.5 | 0.5
[2H]C([2H])([2H])NC(=O)c1nnc(NC(=O)C2CC2)cc1Nc1cccc(-c2ccc(C(F)F)cn2)c1OC [Example 7, 6-(cyclopropanecarboxamido)-4-((3-(5-(difluoromethyl)pyridin-2-yl)-2-methoxyphenyl)amino)-N-(methyl-d3)pyridazine-3-carboxamide] | 0.431 | 31.3 | 0.6
CNC(=O)c1nnc(NC(=O)C2CC2)cc1Nc1cccc(-c2cc(C)ncn2)c1OC [Example 8, 6-cyclopropaneamido-4-{[2-methoxy-3-(6-methylpyrimidin-4-yl)phenyl]amino}-N-(^2H3)methylpyridazine-3-carboxamide] | 0.248 |  | 
CNC(=O)c1nnc(NC(=O)C2CC2)cc1Nc1cccc(-c2ncns2)c1OC [Example 9, 6-cyclopropaneamido-4-{[2-methoxy-3-(1,2,4-thiadiazol-5-yl)phenyl]amino}-N-(^2H3)methylpyridazine-3-carboxamide] | 0.161 |  | 
CNC(=O)c1nnc(NC(=O)C2CC2)cc1Nc1cccc(-c2cnc(F)cn2)c1OC [Example 10, 6-cyclopropaneamido-4-{[3-(5-fluoropyrazin-2-yl)-2-methoxyphenyl]amino}-N-(^2H3)methylpyridazine-3-carboxamide] | 0.219 |  | 
CNC(=O)c1nnc(NC(=O)C2CC2)cc1Nc1cccc(-c2cnc(C3CC3)cn2)c1OC [Example 11, 6-cyclopropaneamido-4-{[3-(5-cyclopropylpyrazin-2-yl)-2-methoxyphenyl]amino}-N-(^2H3)methylpyridazine-3-carboxamide] | 0.165 |  | 
CNC(=O)c1nnc(NC(=O)C2CC2)cc1Nc1cccc(-c2cnc([N+](=O)[O-])cn2)c1OC [Example 12, 6-cyclopropaneamido-4-{[2-methoxy-3-(5-nitropyrazin-2-yl)phenyl]amino}-N-(^2H3)methylpyridazine-3-carboxamide] | 0.044 |  | 
CNC(=O)c1nnc(NC(=O)C2CC2)cc1Nc1cccc(-c2nc(C)ns2)c1OC [Example 13, 6-cyclopropaneamido-4-{[2-methoxy-3-(3-methyl-1,2,4-thiadiazol-5-yl)phenyl]amino}-N-(^2H3)methylpyridazine-3-carboxamide] | 0.051 |  | 
[2H]C([2H])([2H])NC(=O)c1nnc(NC(=O)C2CC2)cc1Nc1cc(C)cc(-c2cnc(C3(O)CCC3)cn2)c1OC [Example 14, 6-(cyclopropanecarboxamido)-4-((3-(5-(1-hydroxycyclobutyl)pyrazin-2-yl)-2-methoxy-5-methylphenyl)amino)-N-(methyl-d3)pyridazine-3-carboxamide] | 0.148 | 37.8 | 0.9
[2H]C([2H])([2H])NC(=O)c1nnc(NC(=O)C2CC2)cc1Nc1cc(F)cc(-c2cnc(C3(O)CCC3)cn2)c1OC [Example 15, 6-cyclopropaneamido-4-({5-fluoro-3-[5-(1-hydroxycyclobutyl)pyrazin-2-yl]-2-methoxyphenyl}amino)-N-(^2H3)methylpyridazine-3-carboxamide] | 0.099 | 30.9 | 1
[2H]C([2H])([2H])NC(=O)c1nnc(NC(=O)C2CC2)cc1Nc1cc(F)cc(-c2cnc(C3CC3)cn2)c1OC [Example 16, 6-(cyclopropanecarboxamido)-4-((3-(5-cyclopropylpyrazin-2-yl)-5-fluoro-2-methoxyphenyl)amino)-N-(methyl-d3)pyridazine-3-carboxamide] | 0.197 | 19.4 | 0.5
[2H]C([2H])([2H])NC(=O)c1nnc(NC(=O)C2CC2)cc1Nc1cccc(-c2coc(C)n2)c1OC [Example 17, 6-(cyclopropanecarboxamido)-4-((2-methoxy-3-(2-methyloxazol-4-yl)phenyl)amino)-N-(methyl-d3)pyridazine-3-carboxamide] | 0.063 | 47.4 | 0.4
[2H]C([2H])([2H])NC(=O)c1nnc(NC(=O)C2CC2)cc1Nc1cccc(-c2nc(C)oc2C)c1OC [Example 18, 6-cyclopropaneamido-4-{[3-(2,5-dimethyl-1,3-oxazol-4-yl)-2-methoxyphenyl]amino}-N-(^2H3)methylpyridazine-3-carboxamide] | 0.152 | 25.9 | 0.7
[2H]C([2H])([2H])NC(=O)c1nnc(NC(=O)C2CC2)cc1Nc1cccc(-c2noc(C(F)F)n2)c1OC [Example 19, 6-(cyclopropanecarboxamido)-4-((3-(5-(difluoromethyl)-1,2,4-oxadiazol-3-yl)-2-methoxyphenyl)amino)-N-(methyl-d3)pyridazine-3-carboxamide] | 0.069 | 17 | 0.6
[2H]C([2H])([2H])NC(=O)c1nnc(NC(=O)C2CC2)cc1Nc1nccc(-c2cnc(C(C)(C)O)cn2)c1OC [Example 20, 6-(cyclopropanecarboxamido)-4-((4-(5-(2-hydroxypropan-2-yl)pyrazin-2-yl)-3-methoxypyridin-2-yl)amino)-N-(methyl-d3)pyridazine-3-carboxamide] | 0.148 | 18.8 | 2.9
[2H]C([2H])([2H])NC(=O)c1nnc(NC(=O)C2CC2)cc1Nc1cccc(-c2csc(C)n2)c1OC [Example 21, 6-cyclopropaneamido-4-{[2-methoxy-3-(2-methyl-1,3-thiazol-4-yl)phenyl]amino}-N-(^2H3)methylpyridazine-3-carboxamide] | 0.385 | 14.1 | 0.7
[2H]C([2H])([2H])NC(=O)c1nnc(NC(=O)C2CC2)cc1Nc1cccc(-c2cnc(OC)cn2)c1OC [Example 22, 6-cyclopropaneamido-4-{[2-methoxy-3-(5-methoxypyrazin-2-yl)phenyl]amino}-N-(^2H3)methylpyridazine-3-carboxamide] | 0.41 | 32.3 | 0.6
[2H]C([2H])([2H])NC(=O)c1nnc(NC(=O)C2CC2)cc1Nc1cccc(-c2cnc(C)cn2)c1OC [Example 23, 6-cyclopropaneamido-4-{[2-methoxy-3-(5-methylpyrazin-2-yl)phenyl]amino}-N-(^2H3)methylpyridazine-3-carboxamide] | 0.243 | 17.4 | 1.4
[2H]C([2H])([2H])NC(=O)c1nnc(NC(=O)C2CC2)cc1Nc1cccc(-c2ccc(C(C)(C)C#N)cn2)c1OC [Example 24, 4-({3-[5-(1-cyano-1-methylethyl)pyridin-2-yl]-2-methoxyphenyl}amino)-6-cyclopropaneamido-N-(^2H3)methylpyridazine-3-carboxamide] | 0.426 | 14.8 | 1.2
